Assay results taken from patent US20190031613A1, “COMPOUNDS AND METHODS FOR THEIR USE IN THE TREATMENT OF MALARIA” (University of South Florida, priority 2016, published 2019).
In brackets after ≈: the same amount, converted by molar mass. Like-named read-outs stand apart in the source and are kept apart here.

Tests used:
P. berghei = conditions: cited from earlier work; for PO dose, single exposure radical cure: lowest single-cure dose as reported
[1] = aqueous solubility at pH 7.4; conditions: pH 7.4, aqueous buffer
P. berghei-GFP parasites = assay: in vivo efficacy, modified Thompson test; design: species or system mice
Experimental: Prodrug 6d was orally tested for in vivo efficacy at four doses (0.3 mg/kg, 1.0 mg/kg, 3.0 mg/kg, and 10 mg/kg) in 0.5% aqueous HEC solution.

[2] = system: multidrug resistant malarial strain W2 (pyrimethamine and chloroquine resistant); assay: in vitro antimalarial activity against strain W2; assay type: cell-based; conditions: strains W2 and TM90-C2B, strain not specified
Description: FIG. 2a depicts the synthesis of 4(1H)-quinolones 1 via Conrad-Limpach reaction^24 and conversion to first set of prodrugs (2, 3 and 4) via O-acylation.
FIG. 4a depicts the synthesis of 4(1H)-quinolones 1 into amino AOCOM ether prodrugs 6 via O-alkylation and subsequent deprotection.

[3] = in vivo pharmacokinetics in mice (plasma, LC/MS-MS)
Experimental: Plasma exposure of prodrug 6e and parent compound 1b was determined following a single oral administration at 10 mg/kg and 3 mg/kg doses in 0.5% aqueous HEC (FIG. 5b).
Compounds 1b and its prodrug 6e were administered as a single dose (10 mg/kg) in 0.5% HEC using freshly prepared solution. Parent compound 1d and its prodrugs 6c and 6d were administered as a single dose of 50 mg/kg using the same vehicle. The blood was collected in prepared 5 ml syringe containing heparin via cardiac puncture and put into 15 mL conical tube on ice. Five mice were used per one time point at 0.5 h, 1 h, 2 h, 4 h, 8 h and 24 h […] plus 2 mice as a control (not-treated). The blood was then centrifuged for 5 min at 4000 rpm and plasma supernatant collected while avoiding the whole blood pellet at the bottom of the tube. The plasma was stored at −80° C. until the day of LC/MS-MS analysis.
Compound concentrations were quantitated in plasma samples by LC/MS-MS using an Agilent triple quadrupole instrument. Chromatographic separation was conducted using an Agilent HPLC with Phenomenex Kinetex C18 column (2.6 μm particle size, 50-4.6 mm i.d.) equipped with a Phenomenex Security Guard column. The mobile phase (1.25 mL/min) consisted of 0.05% formic acid in water and 0.05% formic acid in acetonitrile mixed using a linear gradient over 7 minutes. […] Plasma samples and calibration standards were prepared by protein precipitation with acetonitrile (3 parts acetonitrile to 1 part plasma), followed by centrifugation and analysis of the supernatant. Sample concentrations were determined by comparison to calibration standards prepared in blank plasma and assayed using the same conditions. The analytical lower limit of quantitation in plasma was typically 0.75-1.00 nM and accuracy, precision and recovery were within acceptable limits.
The plasma was first warmed up on ice for about 1 hour. Then 50 μL of plasma sample was precipitated with 150 μL of cold acetonitrile with internal standard (133 nM) P4Q-95^20) following by centrifugation at 4,000 rpm for 5 min at 4° C. and transfer˜150 μL of the supernatant to LCMS vial. The samples were analyzed using Agilent triple quadruple instrument in triplicates (5 mice×3 injections for each time point). The chemical structure of P4Q-95^20 is shown below:
The calibration curve for 1d was linear in 1 to 500 nM range so samples were diluted if needed to fit this linearity and then concentration recalculated accordingly. Calibration curve was run each time following the actual PK measurements and used for that particular compound.

[4] = aqueous stability and parent compound release by quantitative HPLC; conditions: parent 1d
Experimental: The stability of prodrugs in aqueous media and the release of parent compound was followed for 10 h using HPLC in triplicates.
Compound stability was assessed using quantitative HPLC in buffers at different pHs (2, 4, 7), in a simulated gastric fluid (SGF) and in a simulated intestinal fluid (SIF).

[5] = 10 mg/kg PO, three daily doses days 3-5 PI, 0.5% aqueous HEC
[6] = 10 mg/kg PO, three daily doses days 3-5 PI, 0.5% aqueous HEC, untreated 13
[7] = 50 mg/kg PO, three daily doses days 3-5 PI, 0.5% aqueous HEC
[8] = single PO dose 0.01 mg/kg on day 3 PI
[9] = single PO dose 0.03 mg/kg on day 3 PI
[10] = single PO dose 0.1 mg/kg on day 3 PI
[11] = single PO dose 0.3 mg/kg on day 3 PI
[12] = single PO dose 3 mg/kg on day 3 PI
[13] = single PO dose 10 mg/kg on day 3 PI, 0.5% aqueous HEC
[14] = oral dose 50.0 mg/kg, 0.5% aqueous HEC

For `c1cc([C@H]2CC[C@]3(CC2)OO[C@]2(O3)C3CC4CC(C3)CC2C4)ccc1OCCN1CCOCC1` [OZ439], which “single oral dose that cures P. berghei-infected mice” value (P. berghei; clinical candidate, given in combination with ferroquine in trials) is on record?
The value was 20 mg/kg.

And the “PO dose, single exposure radical cure” value (P. berghei)?
Its value is 20 mg/kg.

For `CS(=O)(=O)c1ccc(-c2cnc(N)c(-c3ccc(C(F)(F)F)nc3)c2)cc1` [MMV390048], which “PO dose, single exposure radical cure” value (P. berghei) is on record?
The value was 30 mg/kg.

For `COc1cc2[nH]c(C)c(-c3ccccc3C)c(=O)c2cc1Cl` [1c, 6-chloro-7-methoxy-2-methyl-3-(o-tolyl)-4(1H)-quinolone, reference compound], which solubility ([1]; aqueous medium at pH 7.4 (buffer not named)) is on record?
The solubility was 8.7 µM (≈ 2.73 µg/mL).

What about the “Suppression [%] day 6 PI” value (P. berghei-GFP parasites; [5]) of the same molecule?
Its value is 29%.

And the “Day of death (avg)” value (P. berghei-GFP parasites; [6])?
The value was 13.

And the “Day of death (avg)” value (P. berghei-GFP parasites; [7])?
Its value is 13.

And the “Suppression [%] day 6 PI” value (P. berghei-GFP parasites; [7])?
Its value is 28%.

Which results are given for `CCN(CC)C(=O)Oc1c(-c2ccccc2C)c(C)nc2cc(OC)c(Cl)cc12` [2a]?
solubility [1]: < 1 µM; EC50 values fold higher than reference 4(1H)-quinolone 1c [2]: 300 fold; in vitro antimalarial activity / EC50 values relative to 1c [2]: lacked in antimalarial activity

Which “Day of death (avg)” value (P. berghei-GFP parasites; [8]) does the source give for `CNCCCOC(=O)OCOc1c(-c2ccc(Oc3ccc(OC(F)(F)F)cc3)cc2F)c(C)nc2cc(OC)c(Cl)cc12.Cl` [6e, 6-Chloro-7-methoxy-2-methyl-3-(2-fluoro-4-(4-(trifluoromethoxy)phenoxy)phenyl)-4-(((3-(methylammonio)propyloxycarbonyl)oxy)methoxy)quinoline, chloride salt] here?
Its value is 13.

What about the “Suppression [%] day 6 PI” value (P. berghei-GFP parasites; [8]) of the same molecule?
Its value is less than 1%.

What about the “Day of death (avg)” value (P. berghei-GFP parasites; [9]) of the same molecule?
The value was 13.

What about the “Suppression [%] day 6 PI” value (P. berghei-GFP parasites; [9]) of the same molecule?
The value was less than 1%.

What about the “Day of death (avg)” value (P. berghei-GFP parasites; [10]) of the same molecule?
Its value is 13.

What about the “Suppression [%] day 6 PI” value (P. berghei-GFP parasites; [10]) of the same molecule?
The value was less than 1%.

What about the “Day of death (avg)” value (P. berghei-GFP parasites; [11]) of the same molecule?
The value was 13.

And the “Suppression [%] day 6 PI” value (P. berghei-GFP parasites; [11])?
Its value is 57%.

And the “average suppression of parasitemia on day 13” value (P. berghei-GFP parasites; single PO dose 1 mg/kg)?
Its value is 90%.

And the “Suppression [%] day 6 PI” value (P. berghei-GFP parasites; single PO dose 1 mg/kg on day 3 PI)?
Its value is 97%.

What about the “Day of death (avg)” value (P. berghei-GFP parasites; single PO dose 1 mg/kg on day 3 PI, 1 mg/kg) of the same molecule?
Its value is 21.

What about the “Day of death (avg)” value (P. berghei-GFP parasites; [12]) of the same molecule?
The value was “curative”.

And the “Suppression [%] day 6 PI” value (P. berghei-GFP parasites; [12])?
Its value is greater than 99%.

And the “Day of death (avg)” value (P. berghei-GFP parasites; [13])?
Its value is “curative”.

What about the “Suppression [%] day 6 PI” value (P. berghei-GFP parasites; [13]) of the same molecule?
Its value is greater than 99%.

What about the “oral dose producing single dose cures” value (P. berghei-GFP parasites; single oral dose, no advanced formulation) of the same molecule?
Its value is 3 mg/kg.

What about the “clearance” value ([3]; mouse, in vivo, po) of the same molecule?
Its value is “low clearance”.

And the half-life ([3]; mouse, in vivo, po)?
The half-life was no less than 10 h.

And the “improvement in AUC vs parent” value ([3]; mouse, in vivo, po)?
The value was 21 fold.

And the “improvement of Cmax vs parent” value ([3]; mouse, in vivo, po)?
Its value is 18 fold.

What about the “AUC0→24” value ([3]; mouse, in vivo, po, 3 mg/kg) of the same molecule?
Its value is 4818 µmol·min/L.

And the “Vd” value ([3]; mouse, in vivo, po, 3 mg/kg)?
Its value is 0.8 L/kg.

What about the “tmax” value ([3]; mouse, in vivo, po, 3 mg/kg) of the same molecule?
Its value is 120 min.

What about the “AUC0→24” value ([3]; mouse, in vivo, po, 10 mg/kg) of the same molecule?
The value was 10269 µmol·min/L.

And the “CL” value ([3]; mouse, in vivo, po, 10 mg/kg)?
The value was 1.4 mL·kg/min.

And the Cmax ([3]; mouse, in vivo, po, 10 mg/kg)?
The Cmax was 9.1 µmol/L.

And the “Vd” value ([3]; mouse, in vivo, po, 10 mg/kg)?
Its value is 1.6 L/kg.

What about the “t1/2 apparent” value ([3]; mouse, in vivo, po, 10 mg/kg) of the same molecule?
Its value is 13.1 h.

What about the “tmax” value ([3]; mouse, in vivo, po, 10 mg/kg) of the same molecule?
The value was 240 min.

With `CNCCOC(=O)OCOc1c(-c2ccc(C(F)(F)F)cc2)c(C)nc2cc(OC)c(Cl)cc12.Cl` [6c, 6-Chloro-7-methoxy-2-methyl-3-(4-(triftuoromethyl)phenyl)-4-(((2-(methylammonio)ethoxycarbonyl)oxy)methoxy)quinoline, chloride salt] as the molecule, how does the parent compound released ([4]; in 1 h at pH 7.0) read?
Its parent compound released is greater than 90%.

And the parent compound released ([4]; in 10 h at pH 4.0)?
The parent compound released was greater than 25%.

And the “Suppression [%] day 6 PI” value (P. berghei-GFP parasites; [5])?
The value was 75%.

What about the “Day of death (avg)” value (P. berghei-GFP parasites; [6]) of the same molecule?
The value was 13.

And the “Day of death (avg)” value (P. berghei-GFP parasites; [7])?
Its value is 16.

And the “Suppression [%] day 6 PI” value (P. berghei-GFP parasites; [7])?
Its value is 96%.

What about the “AUC0→24” value [3, 14] of the same molecule?
Its value is 8031 µmol·min/L.

What about the “CL” value [3, 14] of the same molecule?
Its value is 11.6 mL·kg/min.

And the “Vd” value [3, 14]?
Its value is 7.8 L/kg.

What about the “t1/2 apparent” value [3, 14] of the same molecule?
The value was 7.7 h.

What about the “tmax” value [3, 14] of the same molecule?
Its value is 240 min.

What about the Cmax ([3]; read-out: Cmax [μmol/L], oral dose 50.0 mg/kg, 0.5% aqueous HEC, parent in plasma) of the same molecule?
Its Cmax is 12 µmol/L.

What about the “AUC of 1d improved vs dosing of 1d” value ([3]; single oral 50 mg/kg) of the same molecule?
The value was 36 fold.

And the “maximum plasma concentration of 1d” value ([3]; single oral 50 mg/kg of prodrug, 0.5% aqueous HEC)?
Its value is 12 µM.
